The values below come from patent US11078202B2, “β-lactamase inhibitor and use thereof” (priority 2018, dated 2021).

Counter-ions that a name gives are not always drawn.

What all share (type): cell-based
The test system of experiment [1] is Acinetobacter baumannii XNWB 0007. The experiment is described as follows: MIC assay of test compounds combined with ceftazidime (8 μg/mL). Conditions: ceftazidime 8 μg/mL fixed. The essentials: (§1)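 Frozen strains, thawed and passaged twice on TSA (35±2 °C, 20-24 h), supplied colonies standardised in saline to OD600 0.1-0.15. These suspensions, diluted 300× in 1.1×CAMHB, were exposed to graded compound with constant partner antibiotic; MICs were read after 16-20 h at 35±2 °C.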

The subject of experiment [2] is Klebsiella pneumoniae XNWB 0001. The experiment is described as above. Particulars: ceftazidime 8 μg/mL fixed. The essentials: as §1
Experiment [3] concerns Klebsiella pneumoniae XNWB 0002. The description is as above. Particulars: ceftazidime 8 μg/mL fixed. In outline: as §1
Experiment [4] relates to Klebsiella pneumoniae XNWB 0003. Described as above. Particulars: ceftazidime 8 μg/mL fixed. In outline:
as §1

Experiment [5] concerns Klebsiella pneumoniae XNWB 0004. The experiment is described as above. Conditions: ceftazidime 8 μg/mL fixed. The essentials:
as §1

Experiment [6] concerns Klebsiella pneumoniae XNWB 0005. The description is as above. Conditions: ceftazidime 8 μg/mL fixed. The essentials: as §1
In experiment [7] the test system is Klebsiella pneumoniae XNWB 0006. The experiment is described as above. Particulars: ceftazidime 8 μg/mL fixed. The essentials: as §1
For experiment [8], the system named is Pseudomonas aeruginosa XNWB 0008. The experiment is described as above. Conditions: ceftazidime 8 μg/mL fixed. In outline: as §1
The subject of experiment [9] is Acinetobacter baumannii XNWB 0007. Nature of the experiment: MIC assay of test compounds combined with imipenem (4 μg/mL). Particulars: imipenem 4 μg/mL fixed. The essentials:
as §1

For experiment [10], the system named is Klebsiella pneumoniae XNWB 0001. The experiment is described as above. Conditions: imipenem 4 μg/mL fixed. In outline:
as §1

In experiment [11] the test system is Klebsiella pneumoniae XNWB 0002. The experiment is described as above. Particulars: imipenem 4 μg/mL fixed. In outline:
as §1

Experiment [12] has as its system Klebsiella pneumoniae XNWB 0003. Described as above. Conditions: imipenem 4 μg/mL fixed. In outline:
as §1

The test system of experiment [13] is Klebsiella pneumoniae XNWB 0004. The description is as above. Particulars: imipenem 4 μg/mL fixed. The essentials:
as §1

Experiment [14] deals with Klebsiella pneumoniae XNWB 0005. The experiment is described as above. Particulars: imipenem 4 μg/mL fixed. In outline:
as §1

The test system of experiment [15] is Klebsiella pneumoniae XNWB 0006. Described as above. Particulars: imipenem 4 μg/mL fixed. In outline:
as §1

Experiment [16] has as its system Pseudomonas aeruginosa XNWB 0008. The experiment is described as above. Conditions: imipenem 4 μg/mL fixed. In outline:
as §1

Consider `NC1(Cc2nnc([C@@H]3CC4(CC4)[C@@H]4CN3C(=O)N4OS(=O)(=O)O)o2)CC1` [Example 21, (1R,4S)-4-(5-((1-aminocyclopropyl)methyl)-1,3,4-oxadiazol-2-yl)-6-oxo-5,7-diazaspiro [bicyclo[3.2.1]octane-2,1′-cyclopropan]-7-yl sulfate], for which the “The minimum concentration of test compounds combined with ceftazidime (8 μg/mL) for bacteriostasis” value in experiment [1] is listed as “C (C: 16-128 μg/mL)”; in [2], “A (A: <8 μg/mL)”; in experiment [3], “A (A: <8 μg/mL)”; in [4], “A (A: <8 μg/mL)”; in experiment [5], “B (B: 8-16 μg/mL)”; in [6], “B (B: 8-16 μg/mL)”. The “The minimum concentration of test compounds combined with ceftazidime (8 μg/mL) for bacteriostasis” value is recorded as “A (A: <8 μg/mL)” in experiment [7] and “C (C: 16-128 μg/mL)” in [8]. Moreover, the “The minimum concentration of test compounds combined with imipenem (4 μg/mL) for bacteriostasis” value in [9] is “C (C: 16-128 μg/mL)”; in experiment [10], “A (A: <8 μg/mL)”; in [11] it was “A (A: <8 μg/mL)”; in experiment [12] it was “A (A: <8 μg/mL)”; in experiment [13], “A (A: <8 μg/mL)”; in experiment [14], “A (A: <8 μg/mL)”. Moreover, the results for the “The minimum concentration of test compounds combined with imipenem (4 μg/mL) for bacteriostasis” value in [15] and in [16] were “A (A: <8 μg/mL)” and “C (C: 16-128 μg/mL)”, respectively.

For the molecule `CNCc1cc([C@@H]2CC3(CC3)[C@@H]3CN2C(=O)N3OS(=O)(=O)O)no1` [Example 32], the “The minimum concentration of test compounds combined with ceftazidime (8 μg/mL) for bacteriostasis” value in [1] is recorded as “C (C: 16-128 μg/mL)”; in experiment [2] it was “B (B: 8-16 μg/mL)”; in [3], “A (A: <8 μg/mL)”; in experiment [4], “B (B: 8-16 μg/mL)”; in [5], “C (C: 16-128 μg/mL)”; in [6], “C (C: 16-128 μg/mL)”. The “The minimum concentration of test compounds combined with ceftazidime (8 μg/mL) for bacteriostasis” value is listed as “B (B: 8-16 μg/mL)” in [7] and “C (C: 16-128 μg/mL)” in experiment [8]. The “The minimum concentration of test compounds combined with imipenem (4 μg/mL) for bacteriostasis” value in experiment [9] was “C (C: 16-128 μg/mL)”; in experiment [10], “A (A: <8 μg/mL)”; in experiment [11], “A (A: <8 μg/mL)”; in experiment [12], “A (A: <8 μg/mL)”; in [13] it was “A (A: <8 μg/mL)”; in experiment [14] it was “A (A: <8 μg/mL)”. Also, the entries for the “The minimum concentration of test compounds combined with imipenem (4 μg/mL) for bacteriostasis” value in [15] and in experiment [16] were “A (A: <8 μg/mL)” and “C (C: 16-128 μg/mL)”, respectively.

Regarding `N=C(N)NCC(O)c1nnc([C@@H]2CC3(CC3)[C@@H]3CN2C(=O)N3OS(=O)(=O)O)o1` (stereo partly drawn) [Example 10, (1R,4S)-4-(5-(2-guanidyl-1-hydroxyethyl)-1,3,4-oxadiazol-2-yl)-6-oxo-5,7-diazaspiro [bicyclo[3.2.1]octane-2,1′-cyclopropan]-7-yl sulfate], the “The minimum concentration of test compounds combined with ceftazidime (8 μg/mL) for bacteriostasis” value in experiment [1] is recorded as “C (C: 16-128 μg/mL)”; in experiment [2] it was “A (A: <8 μg/mL)”; in experiment [3], “A (A: <8 μg/mL)”; in experiment [4], “A (A: <8 μg/mL)”; in experiment [5] it was “A (A: <8 μg/mL)”; in experiment [6] it was “A (A: <8 μg/mL)”. Also, the “The minimum concentration of test compounds combined with ceftazidime (8 μg/mL) for bacteriostasis” value in [7] was “A (A: <8 μg/mL)”; in experiment [8] it was “B (B: 8-16 μg/mL)”. In addition, the “The minimum concentration of test compounds combined with imipenem (4 μg/mL) for bacteriostasis” value in [9], in experiment [10], in experiment [11], in experiment [12], in experiment [13] and in experiment [14] was “A (A: <8 μg/mL)” throughout. The “The minimum concentration of test compounds combined with imipenem (4 μg/mL) for bacteriostasis” value in experiment [15] and in experiment [16] was “A (A: <8 μg/mL)” throughout.

`N[C@H]1C[C@H](Cc2nnc([C@@H]3CC4(CC4)[C@@H]4CN3C(=O)N4OS(=O)(=O)O)o2)C1` [Example 19, (1R,4S)-4-(5-(((1R,3R)-3-aminocyclobutyl)methyl)-1,3,4-oxadiazol-2-yl)-6-oxo-5,7-diazaspiro[bicyclo[3.2.1]octane-2,1′-cyclopropan]-7-yl sulfate]: the “The minimum concentration of test compounds combined with ceftazidime (8 μg/mL) for bacteriostasis” value is given as “C (C: 16-128 μg/mL)” in experiment [1]; “A (A: <8 μg/mL)” in experiment [2]; “A (A: <8 μg/mL)” in experiment [3]; “A (A: <8 μg/mL)” in experiment [4]; “A (A: <8 μg/mL)” in [5]; “A (A: <8 μg/mL)” in experiment [6]. The results for the “The minimum concentration of test compounds combined with ceftazidime (8 μg/mL) for bacteriostasis” value in [7] and in experiment [8] were “A (A: <8 μg/mL)” and “B (B: 8-16 μg/mL)”, respectively. For the same molecule, the “The minimum concentration of test compounds combined with imipenem (4 μg/mL) for bacteriostasis” value in [9] is on record as “B (B: 8-16 μg/mL)”; in experiment [10], “A (A: <8 μg/mL)”; in experiment [11], “A (A: <8 μg/mL)”; in experiment [12] it was “A (A: <8 μg/mL)”; in experiment [13], “A (A: <8 μg/mL)”; in [14], “A (A: <8 μg/mL)”. Also, the figures for the “The minimum concentration of test compounds combined with imipenem (4 μg/mL) for bacteriostasis” value in experiment [15] and in experiment [16] were “A (A: <8 μg/mL)” and “B (B: 8-16 μg/mL)”, respectively.

In the case of `O=C(NC1CCNC1)[C@@H]1CC2(CC2)[C@@H]2CN1C(=O)N2OS(=O)(=O)O` (stereo partly drawn) [Example 28, (1R,4S)-6-oxo-4-(pyrrolidin-3-ylaminoformyl)-5,7-diazaspiro[bicyclo[3.2.1]octane-2,1′-cyclopropan]-7-yl sulfate], the “The minimum concentration of test compounds combined with ceftazidime (8 μg/mL) for bacteriostasis” value was “C (C: 16-128 μg/mL)” in [1]; “A (A: <8 μg/mL)” in experiment [2]; “A (A: <8 μg/mL)” in [3]; “A (A: <8 μg/mL)” in experiment [4]; “B (B: 8-16 μg/mL)” in experiment [5]; “A (A: <8 μg/mL)” in experiment [6]. For the same molecule, the “The minimum concentration of test compounds combined with ceftazidime (8 μg/mL) for bacteriostasis” value in [7] and in experiment [8] was “A (A: <8 μg/mL)” throughout. In addition, the “The minimum concentration of test compounds combined with imipenem (4 μg/mL) for bacteriostasis” value in experiment [9] was “C (C: 16-128 μg/mL)”; in experiment [10], “A (A: <8 μg/mL)”; in [11], “A (A: <8 μg/mL)”; in [12], “A (A: <8 μg/mL)”; in [13], “A (A: <8 μg/mL)”; in experiment [14], “A (A: <8 μg/mL)”. For the same molecule, the “The minimum concentration of test compounds combined with imipenem (4 μg/mL) for bacteriostasis” value in experiment [15] and in experiment [16] was “A (A: <8 μg/mL)” each time.
